From paper PMC11820866, “Angiotensin-Converting Enzyme (ACE)-Inhibitor Activity of Novel Peptides Derived from Porcine Liver and Placenta” (Molecules, 2025)
Like-named read-outs stand apart in the source and are kept apart here. Values belong to the compound of their own block, whether it stands above or below them. Residues, ends and D or L forms follow the SMILES beside them. No end group written: not given here.

What was measured:
[1] = Solubility of synthetic peptides in aqueous solution; assay type: physicochemical; settings: in words; stocks 10 mM in deionised water
Method: Based on the in silico activity prediction, four synthetic peptides were ordered from Peptide Synthetics (Protein Peptide Research Ltd., Fareham, UK). They were supplied as 10 mg aliquots of lyophilised powders. The synthetic peptides were dissolved in deionised water to produce 10 mM stock solutions: • FWG: 10 mg/mL = 24.48 mM therefore 10 mM = 4.085 mg/mL • MFLG: 10 mg/mL = 21.43 mM therefore10 mM = 4.666 mg/mL • […]: 10 mg/mL = 10.75 mM therefore 10 mM = 9.302 mg/mL • FFNDA: 10 mg/mL = 16.32 mM or10 mM = 6.127 mg/mL

ACE from rabbit lung = biological target: T1, ACE from rabbit lung (Oryctolagus cuniculus, UniProt P12822); test: ACE-inhibition assay (modified Cushman and Cheung, HHL substrate, HPLC); assay type: biochemical; settings: 0.5 mM HHL, TRIS pH 8.3, 37 °C 30 min, HPLC-UV 228 nm, calculated from % inhibition at 0.1, 1 (2) mM, this study
T1 construct: ACE from rabbit lung (purchased from Sigma Aldrich 2U equal to 1 mg of protein); purchased Sigma Aldrich; host or cells: rabbit lung
T1 sequence (P12822 34-1310): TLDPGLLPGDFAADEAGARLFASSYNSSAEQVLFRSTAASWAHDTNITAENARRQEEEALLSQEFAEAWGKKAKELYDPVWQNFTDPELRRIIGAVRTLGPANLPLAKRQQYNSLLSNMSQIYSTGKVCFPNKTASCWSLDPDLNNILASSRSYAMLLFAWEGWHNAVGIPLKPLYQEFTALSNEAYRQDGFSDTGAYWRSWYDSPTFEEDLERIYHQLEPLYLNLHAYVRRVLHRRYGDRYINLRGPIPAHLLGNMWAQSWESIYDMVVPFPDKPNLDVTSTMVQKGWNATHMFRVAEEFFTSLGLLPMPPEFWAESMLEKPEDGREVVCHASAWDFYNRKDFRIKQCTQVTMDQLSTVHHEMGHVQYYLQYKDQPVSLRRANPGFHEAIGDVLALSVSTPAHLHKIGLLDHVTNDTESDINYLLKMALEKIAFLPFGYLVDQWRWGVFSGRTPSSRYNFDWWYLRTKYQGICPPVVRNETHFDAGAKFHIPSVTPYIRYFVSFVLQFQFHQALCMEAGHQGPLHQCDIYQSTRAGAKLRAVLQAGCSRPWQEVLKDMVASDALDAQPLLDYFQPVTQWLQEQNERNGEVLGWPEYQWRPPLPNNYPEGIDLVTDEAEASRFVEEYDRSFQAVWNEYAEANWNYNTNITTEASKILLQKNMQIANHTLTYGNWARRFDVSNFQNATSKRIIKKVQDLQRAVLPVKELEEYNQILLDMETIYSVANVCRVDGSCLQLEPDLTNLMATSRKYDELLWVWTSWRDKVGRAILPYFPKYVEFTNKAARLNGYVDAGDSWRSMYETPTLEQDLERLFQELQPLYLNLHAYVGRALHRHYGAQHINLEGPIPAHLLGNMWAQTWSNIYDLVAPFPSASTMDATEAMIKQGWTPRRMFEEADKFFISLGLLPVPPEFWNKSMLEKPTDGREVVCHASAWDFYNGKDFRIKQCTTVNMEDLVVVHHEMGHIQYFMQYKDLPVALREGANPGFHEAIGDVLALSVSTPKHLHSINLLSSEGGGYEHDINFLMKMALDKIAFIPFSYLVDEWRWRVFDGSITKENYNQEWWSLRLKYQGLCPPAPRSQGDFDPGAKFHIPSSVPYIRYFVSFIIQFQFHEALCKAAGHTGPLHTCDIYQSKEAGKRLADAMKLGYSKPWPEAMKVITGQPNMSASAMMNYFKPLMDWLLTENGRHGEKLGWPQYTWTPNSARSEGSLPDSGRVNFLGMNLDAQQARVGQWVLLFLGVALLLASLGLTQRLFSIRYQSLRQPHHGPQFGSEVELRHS

ACE = system: ACE; parameters: method as in 14 sources, ref [13, 14] = [13]; PMID 16218651; doi:10.1021/jf0508908; 13. Vercruysse L. Van Camp J. Smagghe G. ACE inhibitory peptides derived from enzymatic hydrolysates of animal muscle protein: A review J. Agric. Food Chem. 2005 53 8106 8115 10.1021/jf0508908 1621865 || [14]; PMID 22061507; doi:10.1016/S0309-1740(00)00108-X; 14. Arihara K. Nakashima Y. Mukai T. Ishikawa S. Itoh M. Peptide inhibitors for angiotensin I-converting enzyme from enzymatic hydrolysates of porcine skeletal muscle proteins Meat Sci. 2001 57 319 32 ||| ref [13, 15] = [13]; PMID 16218651; doi:10.1021/jf0508908; 13. Vercruysse L. Van Camp J. Smagghe G. ACE inhibitory peptides derived from enzymatic hydrolysates of animal muscle protein: A review J. Agric. Food Chem. 2005 53 8106 8115 10.1021/jf0508908 1621865 || [15]; doi:10.1046/j.1344-3941.2003.00086.x; 15. Katayama K. Tomatsu M. Fuchu H. Sugiyama M. Kawahara S. Yamauchi K. Kawamura Y. Muguruma M. Purification and characterization of an angiotensin I-converting enzyme inhibitory peptide derived from ||| ref [16] = [16]; doi:10.1016/j.foodchem.2008.09.081; 16. Muguruma M. Ahhmed A.M. Katayama K. Kawahara S. Maruyama M. Nakamura T. Identification of pro-drug type ACE inhibitory peptide sourced from porcine myosin B: Evaluation of its antihypertensive eff ||| ref [17] = [17]; PMID 1368684; 17. Miyoshi S. Ishikawa H. Kaneko T. Fukui F. Tanaka H. Maruyama S. Structures and activity of angiotensin-converting enzyme inhibitors in an α-zein hydrolysate Agric. Biol. Chem. 1991 55 1313 1318 13 ||| ref [17, 18] = [17]; PMID 1368684; 17. Miyoshi S. Ishikawa H. Kaneko T. Fukui F. Tanaka H. Maruyama S. Structures and activity of angiotensin-converting enzyme inhibitors in an α-zein hydrolysate Agric. Biol. Chem. 1991 55 1313 1318 13 || [18]; PMID 16448176; doi:10.1021/jf051263l; 18. Wu J. Aluko R.E. Nakai S. Structural requirements of angiotensin i-converting enzyme inhibitory peptides: Quantitative structure−activity relationship study of di- and tripeptides J. Agric. Food C ||| ...; settings: cited from earlier work; for ACE inhibition (in words): fish skin gelatine hydrolysate peptides, ref [26]; for IC50: porcine-derived peptides, literature, read-out: ACE Inhibition IC50

- Solubility in aqueous solution [1]: readily soluble in aqueous solution
- IC50 (ACE from rabbit lung): 0.07 mM
Compound: CSCC[C@H](N)C(=O)N[C@@H](Cc1ccccc1)C(=O)N[C@@H](CC(C)C)C(=O)NCC(=O)O [MFLG] (H-MFLG-OH)

- Solubility in aqueous solution [1]: perhaps less soluble
- IC50 (ACE from rabbit lung): 0.83 mM
Compound: FFNDA [FFNDA]

Compound: GIPGAP [peptide from hydrolysates of thornback ray skin]
- ACE inhibition (in words) (ACE): most active ACE inhibitor

Compound: ITTNP [literature porcine peptide, myosin]
- IC50 (ACE; ref [13],[14]): 549 µM

Compound: KAPVA [literature porcine peptide, titin]
- IC50 (ACE; ref [20],[24]): 47 µM

Compound: KRQKYDI [literature porcine peptide, troponin]
- IC50 (ACE; ref [17],[20]): 27 µM

Compound: KRVITY [literature porcine peptide, myosin]
- IC50 (ACE; ref [16]): 6 µM

Compound: LLMLDNDLPP
- ACE inhibition (in words) (ACE): potent non-competitive ACE inhibition

Compound: MNPPK [literature porcine peptide, myosin]
- IC50 (ACE; ref [13],[14]): 946 µM

Compound: PTPVP [literature porcine peptide, titin]
- IC50 (ACE; ref [20],[24]): 256 µM

Compound: RMLGQTP [literature porcine peptide, troponin C]
- IC50 (ACE; ref [13],[15]): 503 µM

Compound: RMLGQTPTK [literature porcine peptide, troponin C]
- IC50 (ACE; ref [13],[15]): 34 µM

- Solubility in aqueous solution [1]: perhaps less soluble
- IC50 (ACE from rabbit lung): 1.16 mM
Compound: SDPPLVFVG

Compound: VKAGF [literature porcine peptide, actin]
- IC50 (ACE; ref [16]): 20 µM

Compound: VKKVLGNP [literature porcine peptide, myosin (light chain)]
- IC50 (ACE; ref [20],[21]): 29 µM

Compound: VLAQYK [peptide derived from meat waste]
- ACE-inhibitory activity (in words) (ACE; peptide derived from meat waste, ref [7]): greatest ACE-inhibitory activity
